# Patent publication US20240425501A1, “NOVEL BICYCLIC HETEROARYL DERIVATIVES AS SOS1:KRAS PROTEINPROTEIN INTERACTION INHIBITORS” (SATYARX PHARMA INNOVATIONS PVT LTD, priority 2021, published 2024)
# Biological target: T1, hSOS1 enzyme / KRAS (G12C), GST-Tag, GDP-bound protein (Homo sapiens, UniProt Q07889)
# T1 sequence (Q07889 564-1049 limits assumed): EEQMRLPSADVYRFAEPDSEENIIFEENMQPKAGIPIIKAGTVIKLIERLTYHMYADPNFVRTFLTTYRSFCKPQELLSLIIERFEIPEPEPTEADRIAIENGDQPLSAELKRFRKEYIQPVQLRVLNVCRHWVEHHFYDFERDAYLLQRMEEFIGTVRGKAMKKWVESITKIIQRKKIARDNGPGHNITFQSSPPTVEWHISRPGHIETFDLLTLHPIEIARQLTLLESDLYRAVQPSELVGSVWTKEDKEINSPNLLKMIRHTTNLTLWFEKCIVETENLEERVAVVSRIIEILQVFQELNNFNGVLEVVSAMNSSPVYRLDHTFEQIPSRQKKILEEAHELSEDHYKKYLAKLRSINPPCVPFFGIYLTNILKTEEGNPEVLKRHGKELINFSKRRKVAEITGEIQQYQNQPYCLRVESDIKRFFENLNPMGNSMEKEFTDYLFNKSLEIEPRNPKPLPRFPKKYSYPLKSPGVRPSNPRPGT
# Assay: SOS1-mediated KRAS guanine nucleotide exchange (GEF) assay, HTRF ("On Assay")
# Type: biochemical
# Details: 1 μM compound
# Description: Biochemical Assay: Measurement of SOS1-Mediated KRAS Guanine Nucleotide Exchange (GEF) Assay
# This assay quantifies the HTRF-based SOS1 mediated guanine nucleotide exchange assay detecting GTP binding to KRAS (G12C), GST-Tag, GDP-bound protein. This is also referred as “On Assay”.The assay buffer composition is as follows: 10 mM HEPES pH-7, 150 mM NaCl, 5 mM MgCl2, 1 mM DTT, 0.05% BSA, 0.0025% IGEPAL CA-630 and MilliQ water. 0.5 μl of compounds diluted in assay buffer were dispensed into the respective wells of 384 black well test plate. 4.75 μl of KRAS working solution containing 100 nM KRAS (G12C), GST-Tag, GDP-bound protein GDP-loaded (Reaction biology) and 2 nM Anti GST-Tb cryptate (FRET donor, Cisbio) was added in assay buffer. The components were incubated for 10 min at 25° C.
# 4.75 μl of hSOS1 working solution containing 20 nM hSOS1 enzyme and 200 nM EDA-GTP-DY-647P (FRET acceptor, synthesized by Jena Bioscience (Germany), supplied as a 1 mM solution) was further added in assay buffer. 4.75 μl of inhibitor control having only 200 nM EDA-GTP-DY-647P1 component without hSOS1 working solution was added in the negative control well. The plate was short spun for few seconds and incubated for 10 min. HTRF was measured using Perkin Elmer-Nivo 5F multimode plate reader.
# HTRF settings: EXCITATION FILTER—320/75 nm, EMISSION FILTER (1) —615/8 nm, EMISSION FILTER (2)—665/8 nm
row,SMILES,inhibition at 1 µM
1,"C[C@@H](Nc1nc(N(C)C)nc2cnc(N3CCC(F)CC3)cc12)c1cc(N)cc(C(F)(F)F)c1 [Example 43, (R)—N4-(1-(3-amino-5-(trifluoromethyl)phenyl)ethyl)-6-(4-fluoropiperidin-1-yl)-N2,N2-dimethylpyrido[3,4-d]pyrimidine-2,4-diamine]",≥ 50%
2,"CNc1cc2c(N[C@H](C)c3cc(N)cc(C(F)(F)F)c3)nc(N3CCC3)nc2cn1 [Example 56, (R)—N4-(1-(3-amino-5-(trifluoromethyl)phenyl)ethyl)-2-(azetidin-1-yl)-N6-methylpyrido[3,4-d]pyrimidine-4,6-diamine]",≥ 50%
3,"C[C@@H](Nc1nc(N(C)CCN(C)C)nc2cnc(N3CCCC3)cc12)c1cc(N)cc(C(F)(F)F)c1 [Example 10, (R)—N4-(1-(3-amino-5-(trifluoromethyl)phenyl)ethyl)-N2-(2-(dimethylamino)ethyl)-N2-methyl-6-(pyrrolidin-1-yl)pyrido[3,4-d]pyrimidine-2,4-diamine]",≥ 50%
4,"C[C@@H](Nc1nc(N(C)C)nc2cnc(N3CCOCC3)cc12)c1cc(N)cc(C(F)(F)F)c1 [Example 8, (R)—N4-(1-(3-amino-5-(trifluoromethyl)phenyl)ethyl)-N2,N2-dimethyl-6-morpholinopyrido[3,4-d]pyrimidine-2,4-diamine]",≥ 50%
5,"C[C@@H](Nc1nc(N2CCCC2)nc2cnc(N3CCCC3)cc12)c1cc(N)cc(C(F)(F)F)c1 [Example 17, (R)—N-(1-(3-amino-5-(trifluoromethyl)phenyl)ethyl)-2,6-di(pyrrolidin-1-yl)pyrido[3,4-d]pyrimidin-4-amine]",≥ 50%
6,"CCN1CCN(c2cc3c(N[C@H](C)c4cc(N)cc(C(F)(F)F)c4)nc(Cl)nc3cc2F)CC1 [Example 70, (R)—N-(1-(3-amino-5-(trifluoromethyl)phenyl)ethyl)-2-chloro-6-(4-ethylpiperazin-1-yl)-7-fluoroquinazolin-4-amine]",≥ 50%
7,"C[C@@H](Nc1nc(OCCO)nc2cnc(N3CCCC3)cc12)c1cc(N)cc(C(F)(F)F)c1 [Example 11, (R)-2-((4-((1-(3-amino-5-(trifluoromethyl)phenyl)ethyl)amino)-6-(pyrrolidin-1-yl)pyrido[3,4-d]pyrimidin-2-yl)oxy)ethan-1-ol]",≥ 50%
8,"COC1CCN(c2cc3c(N[C@H](C)c4cc(N)cc(C(F)(F)F)c4)nc(NC(C)C)nc3cn2)CC1 [Example 42, (R)—N4-(1-(3-amino-5-(trifluoromethyl)phenyl)ethyl)-N2-isopropyl-6-(4-methoxypiperidin-1-yl)pyrido[3,4-d]pyrimidine-2,4-diamine]",≥ 50%
9,"CNc1nc(N[C@H](C)c2cc(N)cc(C(F)(F)F)c2)c2cc(N3CCCC3)ncc2n1 [Example 7, (R)—N4-(1-(3-amino-5-(trifluoromethyl)phenyl)ethyl)-N2-methyl-6-(pyrrolidin-1-yl)pyrido[3,4-d]pyrimidine-2,4-diamine]",≥ 50%
10,"CNc1nc(N[C@H](C)c2cc(N)cc(C(F)(F)F)c2)c2cc(N3CCOCC3)ncc2n1 [Example 18, (R)—N4-(1-(3-amino-5-(trifluoromethyl)phenyl)ethyl)-N2-methyl-6-morpholinopyrido[3,4-d]pyrimidine-2,4-diamine]",≥ 50%
11,"C[C@@H](Nc1nc(N2CCC2)nc2cnc(C3CCN(C)CC3)cc12)c1cc(N)cc(C(F)(F)F)c1 [Example 68, (R)—N-(1-(3-amino-5-(trifluoromethyl)phenyl)ethyl)-2-(azetidin-1-yl)-6-(1-methylpiperidin-4-yl)pyrido[3,4-d]pyrimidin-4-amine]",≥ 50%
12,"C[C@@H](Nc1nc(Cl)nc2cnc(N3CCN(C)CC3)cc12)c1cc(N)cc(C(F)(F)F)c1 [Example 23, (R)—N-(1-(3-amino-5-(trifluoromethyl)phenyl)ethyl)-2-chloro-6-(4-methylpiperazin-1-yl)pyrido[3,4-d]pyrimidin-4-amine]",≥ 50%
13,"CCN1CCN(c2cnc3nc(OC)nc(N[C@H](C)c4cc(N)cc(C(F)(F)F)c4)c3c2)CC1 [Example 81, (R)—N-(1-(3-amino-5-(trifluoromethyl)phenyl)ethyl)-6-(4-ethylpiperazin-1-yl)-2-methoxypyrido[2,3-d]pyrimidin-4-amine]",≥ 50%
14,"CCN1CCN(c2cc3c(N[C@H](C)c4cc(N)cc(C(F)(F)F)c4)nc(Cl)nc3cc2OC)CC1 [Example 72, (R)—N-(1-(3-amino-5-(trifluoromethyl)phenyl)ethyl)-2-chloro-6-(4-ethylpiperazin-1-yl)-7-methoxyquinazolin-4-amine]",≥ 50%
15,"CCN1CCN(c2cc3c(N[C@H](C)c4cccc(C(F)F)c4F)nc(Cl)nc3cn2)CC1 [Example 62, (R)-2-chloro-N-(1-(3-(difluoromethyl)-2-fluorophenyl)ethyl)-6-(4-ethylpiperazin-1-yl)pyrido[3,4-d]pyrimidin-4-amine]",≥ 50%
16,"CC1CCN(c2cc3c(N[C@H](C)c4cc(N)cc(C(F)(F)F)c4)nc(Cl)nc3cn2)CC1 [Example 27, (R)—N-(1-(3-amino-5-(trifluoromethyl)phenyl)ethyl)-2-chloro-6-(4-methylpiperidin-1-yl)pyrido[3,4-d]pyrimidin-4-amine]",≥ 50%
17,CNCCC(=O)Nc1nc(N[C@H](C)c2cc(N)cc(C(F)(F)F)c2)c2cc(N3CCCC3)ncc2n1 [Example 78],≥ 50%
18,"COc1nc(N[C@H](C)c2cc(N)cc(C(F)(F)F)c2)c2cc(N3CCCC3)ncc2n1 [Example 3, (R)—N-(1-(3-amino-5-(trifluoromethyl)phenyl)ethyl)-2-methoxy-6-(pyrrolidin-1-yl)pyrido[3,4-d]pyrimidin-4-amine]",≥ 50%
19,"C[C@@H](Nc1nc(N(C)C)nc2cnc(C3CCOCC3)cc12)c1cc(N)cc(C(F)(F)F)c1 [Example 65, (R)—N4-(1-(3-amino-5-(trifluoromethyl)phenyl)ethyl)-N2,N2-dimethyl-6-(tetrahydro-2H-pyran-4-yl)pyrido[3,4-d]pyrimidine-2,4-diamine]",≥ 50%
20,"C[C@@H](Nc1nc(Cl)nc2cnc(N3CCC(F)CC3)cc12)c1cc(N)cc(C(F)(F)F)c1 [Example 22, (R)—N-(1-(3-amino-5-(trifluoromethyl)phenyl)ethyl)-2-chloro-6-(4-fluoropiperidin-1-yl)pyrido[3,4-d]pyrimidin-4-amine]",≥ 50%
21,"CC(C)Nc1nc(N[C@H](C)c2cc(N)cc(C(F)(F)F)c2)c2cc(N3CCOCC3)ncc2n1 [Example 38, (R)—N4-(1-(3-amino-5-(trifluoromethyl)phenyl)ethyl)-N2-isopropyl-6-morpholinopyrido[3,4-d]pyrimidine-2,4-diamine]",≥ 50%
22,"C[C@@H](Nc1nc(N(C)C)nc2cnc(C3CCN(C)CC3)cc12)c1cc(N)cc(C(F)(F)F)c1 [Example 69, (R)—N4-(1-(3-amino-5-(trifluoromethyl)phenyl)ethyl)-N2,N2-dimethyl-6-(1-methylpiperidin-4-yl)pyrido[3,4-d]pyrimidine-2,4-diamine]",≥ 50%
23,"C[C@@H](Nc1nc(N2CCC2)nc2cnc(N3CCN(C4CCC4)CC3)cc12)c1cc(N)cc(C(F)(F)F)c1 [Example 52, (R)—N-(1-(3-amino-5-(trifluoromethyl)phenyl)ethyl)-2-(azetidin-1-yl)-6-(4-cyclobutylpiperazin-1-yl)pyrido[3,4-d]pyrimidin-4-amine]",≥ 50%
24,"C[C@@H](Nc1nc(N2CCC2)nc2cnc(N3CCC(F)CC3)cc12)c1cc(N)cc(C(F)(F)F)c1 [Example 44, (R)—N-(1-(3-amino-5-(trifluoromethyl)phenyl)ethyl)-2-(azetidin-1-yl)-6-(4-fluoropiperidin-1-yl)pyrido[3,4-d]pyrimidin-4-amine]",≥ 50%
25,"CNc1nc(N[C@H](C)c2cc(N)cc(C(F)(F)F)c2)c2cc(N3CCC(OC)CC3)ncc2n1 [Example 30, (R)—N4-(1-(3-amino-5-(trifluoromethyl)phenyl)ethyl)-6-(4-methoxypiperidin-1-yl)-N2-methylpyrido[3,4-d]pyrimidine-2,4-diamine]",≥ 50%
26,"CC(C)Nc1cc2c(N[C@H](C)c3cc(N)cc(C(F)(F)F)c3)nc(N3CCC3)nc2cn1 [Example 54, (R)—N4-(1-(3-amino-5-(trifluoromethyl)phenyl)ethyl)-2-(azetidin-1-yl)-N6-isopropylpyrido[3,4-d]pyrimidine-4,6-diamine]",≥ 50%
